In brackets after ≈: the same amount, converted by molar mass. Like-named read-outs stand apart in the source and are kept apart here.
Columns and labels:
Format in all cases: cell-based, Propionibacterium acnes
HL053PA1 strain (RT4) = test: MIC by broth microdilution method, HL053PA1 strain; conditions: for MIC: Cutibacterium acnes, read-out: MIC against acne bacterium strain HL053PA1 strain (RT4)
Method: (§1) An MIC is measured herein according to the broth microdilution method which is the standard method of Japanese Society of Chemotherapy.
(§2) The antibacterial activity of a test substance was determined based on the minimum inhibitory concentration (MIC). An MIC was measured according to the broth microdilution method which is the standard method of Japanese Society of Chemotherapy.
(§3) One-loopful of each acne bacterium strain listed in Table 1 was scraped off and inoculated into 5 mL of a GAM broth slant agar medium (pH 7.0, Nissui Pharmaceutical Co., Ltd.).
(§4) The inoculated acne bacterium strain was precultured at 37° C. in a nitrogen atmosphere (anaerobic condition) for 48 hours. The precultured microbial cells were diluted in a modified GAM broth liquid medium (pH 6.0) to a concentration of 5.0×10^4 cfu/mL (viable cell count per OD660=1 is 2.0×10^9 cfu/mL), to prepare strain suspensions.
(§5) Each fatty acid (Tokyo Chemical Industry Co., Ltd.) listed in Table 2 was dissolved in dimethylsulfoxide (DMSO) as a solvent such that the concentration became 10,000 μg/mL, and used as a test substance.
(§6) Each of strain suspensions (5.0×10^4 cfu/mL) was aliquoted in a 96-well round bottom microplate, each of the test substance (fatty acid concentration 10,000 μg/mL) was added at a 1/10 volume to the aliquot and mixed to prepare measurement samples (fatty acid concentration: 1,000 μg/mL). Measurement samples in 2-fold dilution series were prepared using the strain suspension (fatty acid concentration from 0.48 to 1,000 μg/mL).
(§7) […] The presence or absence of a precipitation of test microbial cells after the incubation was examined and the minimum concentration at which the precipitation of microbial cells […] was regarded as the MIC (μg/mL) of the test substance against the acne bacterium strain.

[1] = system: HL053PA1 strain (RT4) and HL043PA1 strain (RT5) versus HL110PA3 strain (RT6); test: Strain-selective antibacterial activity (average of MICRT6/MICRT4 and MICRT6/MICRT5)
Source text: Herein, “acne strain-selective antibacterial activity” or “strain-selective antibacterial activity” means an index indicating better inhibition of growth of a dominant strain in acne patients compared to that of a dominant strain in healthy subjects. It is expressed by the average value of the values (MICRT6/MICRT4, and MICRT6/MICRTS) obtained by dividing the minimum inhibitory concentration (MIC) of an object substance with respect to the dominant strain in healthy subjects (RT6 strain) (MICRT6) respectively by the MIC of the object substance with respect to the dominant strain in acne patients (RT4 strain) (MICRT4), and by the MIC of the object substance with respect to the dominant strain in acne patients (RT5 strain) (MICRT5).
The strain-selective antibacterial activity of each test substance (Table 2, right-most column) was evaluated based on the following rating criteria (Table 3). When the strain-selective antibacterial activity is indicated by a numerical range, the rating was based on the minimum value thereof.

HL043PA1 strain (RT5) = test: MIC by broth microdilution method, HL043PA1 strain; conditions: for MIC: Cutibacterium acnes, read-out: MIC against acne bacterium strain HL043PA1 strain (RT5)
Method: as §1, §2, §3
The inoculated acne bacterium strain was precultured at 37° C. in a nitrogen atmosphere (anaerobic condition) for 48 hours. […]
as §5, §6
The measurement samples were incubated under an anaerobic condition at 37° C. for 2 days. The presence or absence of a precipitation of test microbial cells after the incubation was examined and the minimum concentration at which the precipitation of microbial cells […] was regarded as the MIC (μg/mL) of the test substance against the acne bacterium strain.

HL110PA3 strain (RT6) [2] = test: MIC by broth microdilution method, HL110PA3 strain; conditions: for MIC: Cutibacterium acnes, 48 h, pH 6.0 modified GAM broth, anaerobic, 37° C., 2 days (Example 1), read-out: MIC against acne bacterium strain HL110PA3 strain (RT6)
Method: as §1, §2, §3, §4, §5, §6, §7

HL110PA3 strain (RT6) [3] = test: MIC by broth microdilution method, HL110PA3 strain; conditions: Cutibacterium acnes; control antibiotics, Comparative Example 2, method as Example 1; LOD = MIC <0.48 ng/mL; read-out: MIC against acne bacterium strain HL110PA3 strain (RT6)
[4] = monoacylglycerols, Example 3, method as Example 1
[5] = 48 h, pH 6.0 modified GAM broth, anaerobic, 37° C., 2 days (Example 1)
[6] = control antibiotics, Comparative Example 2, method as Example 1

SMILES | MIC (HL053PA1 strain (RT4); [5]) [µg/mL] | MIC (HL043PA1 strain (RT5); [5]) [µg/mL] | MIC (HL110PA3 strain (RT6) [2]) [µg/mL] | Strain-selective antibacterial activity ([1]; pH 6.0 (Example 1)) | also measured
CCCCCCCCCCCCCCC(=O)OCC(O)CO (stereo not shown) [Monopentadecanoin] |  |  |  |  | MIC against acne bacterium strain HL053PA1 strain (RT4) (HL053PA1 strain (RT4); [4]): 15.6 µg/mL (≈ 49.3 µM); Strain-selective antibacterial activity ([1]; monoacylglycerols, Example 3): 6.0; MIC against acne bacterium strain HL043PA1 strain (RT5) (HL043PA1 strain (RT5); [4]): 7.81 µg/mL (≈ 24.7 µM); MIC against acne bacterium strain HL110PA3 strain (RT6) (HL110PA3 strain (RT6) [2]; [4]): 62.5 µg/mL (≈ 197 µM)
CCCCCCCCC(=O)O [Nonanoic acid (C9:0), Nonanoic acid, reference compound] | 500 (≈ 3160 µM) | 250 (≈ 1580 µM) | 250 (≈ 1580 µM) | 0.75 | 
CCCCCCCC/C=C\CCCCCCCC(=O)O [Oleic acid (C18:1), Oleic acid] | 500 (≈ 1770 µM) | 62.5 (≈ 221 µM) | > 1000 | >9.0 | Strain-selective antibacterial activity at each pH ([1]; pH 6 (summary Table 10)): >9
CC[C@H]1OC(=O)[C@H](C)[C@@H](O[C@H]2C[C@@](C)(OC)[C@@H](O)[C@H](C)O2)[C@H](C)[C@@H](O[C@@H]2O[C@H](C)C[C@H](N(C)C)[C@H]2O)[C@](C)(O)C[C@@H](C)/C(=N\OCOCCOC)[C@H](C)[C@@H](O)[C@]1(C)O [Roxithromycin, reference compound] |  |  |  |  | MIC (HL053PA1 strain (RT4); [6]): 500 µg/mL (≈ 597 µM); MIC (HL043PA1 strain (RT5); [6]): 1000 µg/mL (≈ 1190 µM); MIC (HL110PA3 strain (RT6) [3]): 0.0038 µg/mL (≈ 0.00454 µM)
CCCCCCCCCC(=O)O [Capric acid (C10:0), Capric acid, reference compound] | 500 (≈ 2900 µM) | 500 (≈ 2900 µM) | 250 (≈ 1450 µM) | 0.50 | 
CCCCCCCC(=O)O [Caprylic acid (C8:0), Caprylic acid, reference compound] | 250 (≈ 1730 µM) | 250 (≈ 1730 µM) | 125 (≈ 867 µM) | 0.50 | 

Now from value to compound, other results behind:

MIC (HL053PA1 strain (RT4); [5]) [µg/mL] | MIC (HL043PA1 strain (RT5); [5]) [µg/mL] | MIC (HL110PA3 strain (RT6) [2]) [µg/mL] | SMILES | Strain-selective antibacterial activity ([1]; pH 6.0 (Example 1)) | also measured
15.6 (≈ 72.8 µM) | 31.3 (≈ 146 µM) | 15.6 (≈ 72.8 µM) | CCCCCCCCCCCCC(=O)O [Tridecanoic acid (C13:0), Tridecanoic acid, reference compound] | 0.75 | 
15.6 (≈ 83.7 µM) | 15.6 (≈ 83.7 µM) | 15.6 (≈ 83.7 µM) | CCCCCCCCCCC(=O)O [Undecanoic acid (C11:0), Undecanoic acid, reference compound] | 1.0 | 
31.3 (≈ 123 µM) | 7.81 (≈ 30.7 µM) | 15.6 (≈ 61.3 µM) | CCCCCC/C=C\CCCCCCCC(=O)O [Palmitoleic acid (C16:1), Palmitoleic acid, reference compound] | 1.2 | 
125 (≈ 960 µM) | 125 (≈ 960 µM) | 125 (≈ 960 µM) | CCCCCCC(=O)O [Heptanoic acid (C7:0), Heptanoic acid, reference compound] | 1.0 | 

— US20190247353A1, “ACNE STRAIN-SELECTIVE ANTIBACTERIAL AGENT” (MOMOTANI JUNTENKAN CO., LTD., priority 2016, published 2019)
